Consider 9 compounds from publication PMC12066977, “Alkyl Tail Variation on Chalcone‐Based Quaternary Pyridinium Salts as Rule‐of‐Thumb for Antimicrobial Activity” (Archiv Der Pharmazie, 2025).

As a reminder, the CC50 is the concentration giving 50% cytotoxicity. As usually defined, the pIC50 is −log10 of the IC50, conventionally taken in molar units. In general, MIC refers to the lowest concentration that inhibits growth of the organism.

Series [1] can be described thus: Cell viability and proliferation assay (WST8/CCK-8). Format: cell-based. As to conditions: African green monkey, Vero cells (ATCC CCL-81), 48 h treatment, CCK-8; read-out: CC50 [95% CI] Vero cells. How it is done:
Vero cell line (ATCC CCL‐81) was selected as a model system to investigate the overall effect of chalcones on non‐malignant mammalian cells. […] For experiments, cells were seeded into 96‐well plates at 10^4 cells/well and incubated at 37°C for 24 h. Following washes with PBS, the cell monolayer was incubated with 100 µL of medium containing the twofold serial dilutions of the compounds. Both untreated cells and cells incubated with medium containing solvent dilutions were included in each experiment as controls. The cell viability was assessed by a WST8‐based assay according to the manufacturer's instructions (CCK‐8, Cell Counting Kit‐8, Dojindo Molecular Technologies, Rockville, MD, USA). After 48 h of incubation, culture medium was removed from each well, the monolayer was washed with PBS, and 100 µL of fresh medium containing 10 µL of CCK‐8 solution was added. Following a 2 h incubation at 37°C, the OD450nm was read, and data were expressed as the percentage of cell viability relative to the untreated controls. The CC50 was obtained on the corresponding dose–response curves generated as previously reported for IC50 values. Experiments were carried out in triplicate in three biological replicates.
In general terms: Formazan colour is commonly taken as a measure of viable cells.

The subject of another series is S. aureus ATCC 25923. The series is described as follows: Broth microdilution antimicrobial assay (MIC, IC50). Format: cell-based. The following applies: Staphylococcus aureus; for pIC50: ATCC25923, 50% growth inhibition, 24 h, read-out: IC50 [95% confidence interval] Staphylococcus aureus; for MIC: ATCC25923, 24 h, broth microdilution, 37°C. How it is done:
(§1) Reference strains of Staphylococcus aureus (ATCC 25923), Escherichia coli (ATCC 25922), and Candida albicans (ATCC 10231) were used in this study as microbial models. These strains were purchased from the American Type Culture Collection (ATCC); bacterial cultures were routinely grown on 5% blood agar plate, while fungal cultures on Sabouraud Dextrose Agar (Biolife […]., Milan, Italy). […] In short, microbial inocula were prepared at 0.5 McFarland in PBS and, subsequently, bacterial suspensions were diluted 1:200 in Mueller-Hinton broth (Sigma-Aldrich, St. Louis, MO, USA), while fungal inoculum was diluted 1:20 in RPMI-1640 medium (Gibco®, ThermoFisher Scientific Inc., Waltham, MA, USA), containing glucose 2%, 0.3% levo-glutamine buffered to pH 7.0 with 0.165 M 3-(N-morpholino) propanesulfonic acid (MOPS). A total of 100 μL of these microbial suspensions was introduced into a 96-well microplate and incubated with 100 μL of the compounds, two-fold serially diluted in the range of 100-0.19 μM. Positive controls (microbial suspensions in regular media), negative controls (only compounds), and solvent controls (microbial suspensions incubated with DMSO dilutions) were included in the tests. The plate was incubated at 37°C for 24 h, and subsequently the optical density at 630 nm (OD630nm) was spectrophotometrically measured. Experiments were carried out in triplicate in three biological replicates. […] Statistical analysis was carried out by using GraphPad Prism version 9.4.1 for Windows (GraphPad Software, San Diego, California USA, www.graphpad.com). ^a MIC (Minimum Inhibitory Concentration) were determined in vitro by means of a standardized microdilution assay, in compliance with the Clinical and laboratory Standard Institute (CLSI) guidelines (30). Microbial suspensions were prepared at 0.5 McFarland in PBS, then diluted in the media and transferred in a 96 micro-well plate together with the serially 2-fold dilutions of the compounds. After 24h of incubation at 37°C, microbial growths were evaluated by measuring the Optical Density at 600 nm, then percentage values were obtained as relative to the positive controls (microbial suspensions in regular media).
Background: Dilution methods test growth across graded concentrations, often in twofold steps.

The subject of the next series is E. coli ATCC 25922. The series is described as above. Format: cell-based. As to conditions: Escherichia coli, 24 h; for MIC: ATCC25922, broth microdilution, 37°C; for pIC50: ATCC25922, 50% growth inhibition, read-out: IC50 [95% confidence interval] Escherichia coli. How it is done:
as §1

For a further series, the system named is C. albicans ATCC 10231. The description is as above. The following applies: Candida albicans, 24 h; for pIC50: ATCC10231, 50% growth inhibition, read-out: IC50 [95% confidence interval] Candida albicans; for MIC: ATCC10231, broth microdilution, 37°C. Format: cell-based. How it is done: as §1
The test system of another series is E. coli. Briefly: Colistin association assay. Format: cell-based, Escherichia coli. As to conditions: colistin at sub-inhibitory concentration (MIC/8 = 0.027 µM). How it is done: This is a confirmation of the ability of these new QPySs to also affect Gram‐negative proliferation once they pass through the OM.
The dry powder of the chalcone‐based QPySs was resuspended in dimethylsulfoxide (DMSO) at 20 mM and used as stock solutions. For biological investigations, compounds were used in the range 100–0.78 µM, and the solvent in the corresponding percentage range. The following commercially available antimicrobials and toxic clinical drugs were purchased from Sigma‐Aldrich (St. Louis, MO, USA), dissolved in water, and used as reference controls. Gentamicin and ampicillin were used in the range 107.69–0.82 µM and 143.23–1.12 µM, respectively; the colistin was used at 0.03 µM in association with the chalcone‐based QASs with E. coli. The fluconazole was used in the assays with C. albicans in the range 3.27–0.03 µM. […]
In short, microbial inocula were prepared at 0.5 McFarland in PBS and, subsequently, bacterial suspensions were diluted 1:200 in Mueller–Hinton broth (Sigma‐Aldrich, St. Louis, MO, USA), while fungal inoculum was diluted 1:20 in RPMI‐1640 medium (Gibco®, ThermoFisher Scientific Inc., Waltham, MA, USA), containing glucose 2%, 0.3% levo‐glutamine buffered to pH 7.0 with 0.165 M 3‐(N‐morpholino) propanesulfonic acid (MOPS). […] The plate was incubated at 37°C for 24 h, and subsequently the optical density at 630 nm (OD630nm) was spectrophotometrically measured. […]

For series [2], the system named is human red blood cells (hRBCs). The series is described as follows: Hemolytic activity assay. Format: cell-based. The following applies: 25 µM, 90 min, 37°C. How it is done:
The hemolytic activity of some selected compounds was evaluated as the amount of hemoglobin released by the disruption of human red blood cells (hRBCs). For the experiments, fresh hRBCs were collected by centrifugation at 1500g for 10 min, washed three times with PBS, and resuspended to a final concentration of 4% w/v hRBCs in PBS. Then, 100 µL of hRBCs suspension and an equal volume of the twofold dilutions of the antimicrobial peptides were mixed in a 96‐well plate and incubated for 90 min at 37°C. After centrifugation at 1000g for 5 min, the supernatants were transferred into a clear 96‐well plate, and OD405nm was read. Untreated hRBCs (incubated with PBS) and hRBCs incubated with 1% Triton X‐100 were employed as negative and positive controls, respectively. The hemolysis percentage was calculated as [OD405nm (sample) − OD4_05nm (negative control)]/[OD405nm (positive control) − OD405nm (negative control)] × 100. Minimal hemolytic concentrations (MHCs) were defined as the compound concentration causing 10% hemolysis. Three independent experiments were performed in triplicate.

The test system of series [3] is S. aureus ATCC 25923, E. coli ATCC 25922, C. albicans ATCC 10231. Briefly: Broth microdilution antimicrobial assay, statements pooled over the three strains. Format: cell-based. The following applies: stated for S. aureus, E. coli and C. albicans together; read-out: MIC toward the three selected strains. How it is done:
The antimicrobial activity of the compounds was assessed by determining the Minimum Inhibitory Concentration (MIC) by a well‐established broth microdilution procedure in microtiter plates and in compliance with the Clinical and Laboratory Standards Institute (CLSI) guidelines.
In short, microbial inocula were prepared at 0.5 McFarland in PBS and, subsequently, bacterial suspensions were diluted 1:200 in Mueller–Hinton broth (Sigma‐Aldrich, St. Louis, MO, USA), while fungal inoculum was diluted 1:20 in RPMI‐1640 medium (Gibco®, ThermoFisher Scientific Inc., Waltham, MA, USA), containing glucose 2%, 0.3% levo‐glutamine buffered to pH 7.0 with 0.165 M 3‐(N‐morpholino) propanesulfonic acid (MOPS). A total of 100 µL of these microbial suspensions was introduced into a 96‐well microplate and incubated with 100 µL of the compounds, two‐fold serially diluted in the range of 100–0.19 µM. Positive controls (microbial suspensions in regular media), negative controls (only compounds), and solvent controls (microbial suspensions incubated with DMSO dilutions) were included in the tests. The plate was incubated at 37°C for 24 h, and subsequently the optical density at 630 nm (OD630nm) was spectrophotometrically measured. Experiments were carried out in triplicate in three biological replicates. […]

pIC50: −log10 of the molar value. Values after ≈ are worked out from the molar mass of the structure shown.

Take `C#CCOc1ccc(C(=O)/C=C/c2ccc[n+](CCCCCC)c2)c(OCC#C)c1.[Br-]` [Compound 2, (E)‐3‐{3‐[2,4‐Bis(prop‐2‐yn‐1‐yloxy)phenyl]‐3‐oxoprop‐1‐en‐1‐yl}‐1‐hexylpyridin‐1‐ium bromide]: the 50% cytotoxic concentration (CC50) at 48 h in series [1] is above 100 µM. Besides, the pIC50 was 4.46 in the series with S. aureus ATCC 25923 and 4.16 in the series on C. albicans ATCC 10231. For the same compound, the minimum inhibitory concentration (MIC) was 50 µM against S. aureus ATCC 25923, above 100 µM with E. coli ATCC 25922 and 100 µM with C. albicans ATCC 10231. Further, the “MIC Escherichia coli in association with colistin” value in the series with E. coli worked out at 50 µM.

In the case of `C#CCOc1ccc(C(=O)/C=C/c2ccc[n+](CCCCCCCC)c2)c(OCC#C)c1` [Compound 3, (E)‐3‐{3‐[2,4‐Bis(prop‐2‐yn‐1‐yloxy)phenyl]‐3‐oxoprop‐1‐en‐1‐yl}‐1‐octylpyridin‐1‐ium bromide], the CC50 at 48 h in series [1] is 47 µM. Further, the negative-log IC50 (pIC50) is 5.58 in the series with S. aureus ATCC 25923, 4.96 in the series on E. coli ATCC 25922 and 4.52 in the series with C. albicans ATCC 10231. For the same compound, the MIC was 6.25 µM in the series on S. aureus ATCC 25923, 12.5 µM in the series with E. coli ATCC 25922 and 50 µM with C. albicans ATCC 10231.

For the compound `C#CCOc1ccc(C(=O)/C=C/c2ccc[n+](CCCCCCCCCCCC)c2)c(OCC#C)c1.[Br-]` [Compound 5, (E)‐3‐{3‐[2,4‐Bis(prop‐2‐yn‐1‐yloxy)phenyl]‐3‐oxoprop‐1‐en‐1‐yl}‐1‐dodecylpyridin‐1‐ium bromide], the hemolytic activity in series [2] is recorded as 40.9%. Also, the half-maximal cytotoxic concentration (CC50) at 48 h in series [1] was 14 µM. Moreover, the pIC50 is 5.79 with S. aureus ATCC 25923, 5.23 with E. coli ATCC 25922 and 5.80 in the series on C. albicans ATCC 10231. Moreover, the minimal inhibitory concentration (MIC) in the series on S. aureus ATCC 25923 stood at 3.12 µM; in the series on E. coli ATCC 25922, 6.25 µM; against C. albicans ATCC 10231, 3.12 µM.

For the compound `C#CCOc1ccc(C(=O)/C=C/c2ccc[n+](CCCCCCCCCCCCCCCC)c2)c(OCC#C)c1` [Compound 7, (E)‐3‐{3‐[2,4‐Bis(prop‐2‐yn‐1‐yloxy)phenyl]‐3‐oxoprop‐1‐en‐1‐yl}‐1‐hexadecylpyridin‐1‐ium], the cytotoxic concentration (CC50) at 48 h in series [1] amounted to 5.38 µM. Besides, the pIC50 in the series on S. aureus ATCC 25923 is 5.38; in the series on C. albicans ATCC 10231 it was 5.24. Further, the results for the minimal inhibitory concentration (MIC) with S. aureus ATCC 25923, against E. coli ATCC 25922 and in the series with C. albicans ATCC 10231 were 12.5 µM, above 100 µM and 6.25 µM, respectively.

Consider `C#CCOc1ccc(C(=O)/C=C/c2ccc[n+](CCCCCCCCCCCCCCCCCC)c2)c(OCC#C)c1` [Compound 8, (E)‐3‐{3‐[2,4‐Bis(prop‐2‐yn‐1‐yloxy)phenyl]‐3‐oxoprop‐1‐en‐1‐yl}‐1‐octadecylpyridin‐1‐ium bromide], for which, in series [1], the CC50 at 48 h stood at 5.73 µM. In addition, the pIC50 with S. aureus ATCC 25923 was 4.85; in the series on C. albicans ATCC 10231, 4.28. Also, the MIC was 100 µM against S. aureus ATCC 25923, above 100 µM against E. coli ATCC 25922 and above 100 µM with C. albicans ATCC 10231.

As for `C#CCOc1ccc(C(=O)/C=C/c2ccc[n+](CCCCCC[n+]3cccc(/C=C/C(=O)c4ccc(OCC#C)cc4OCC#C)c3)c2)c(OCC#C)c1` [Compound 10, 1,1′‐(Hexane‐1,6‐diyl)bis{3‐[(E)‐3‐(2,4‐bis‐prop‐2‐yn‐1‐yloxyphenyl)‐3‐oxoprop‐1‐en‐1‐yl]pyridin‐1‐ium} bromide], in series [1], the cytotoxic concentration (CC50) at 48 h was above 100 µM. Besides, the pIC50 in the series with S. aureus ATCC 25923 was 4.23; in the series with E. coli ATCC 25922, 4.34; in the series with C. albicans ATCC 10231, 4.02. The MIC against S. aureus ATCC 25923 was 50 µM; against E. coli ATCC 25922 it was 50 µM; against C. albicans ATCC 10231 it was 100 µM; in series [3], at least 50 µM.

On to `COc1cccc2c1C(=O)c1c(O)c3c(c(O)c1C2=O)C[C@@](O)(C(=O)CO)C[C@@H]3O[C@H]1C[C@H](N)[C@H](O)[C@H](C)O1` [DOX, doxorubicin, reference compound], for which, in series [1], the CC50 at 48 h was 70.6 µM.

For the compound `OC(Cn1cncn1)(Cn1cncn1)c1ccc(F)cc1F` [FLC, fluconazole, reference compound], in the series with C. albicans ATCC 10231, the negative-log IC50 (pIC50) was 6.64 and inhibition of growth (MIC) required 0.82 µM (≈ 0.251 µg/mL).

As for `CNC(C)C1CCC(N)C(OC2C(N)CC(N)C(OC3OCC(C)(O)C(NC)C3O)C2O)O1` (stereo not shown) [GEN, gentamicin, reference compound], in the series on S. aureus ATCC 25923, the pIC50 is 5.40 and it took 6.54 µM (≈ 3.12 µg/mL) to inhibit growth (MIC). For the same compound, in the series on E. coli ATCC 25922, the negative logarithm of the IC50 (pIC50) is 5.21 and the minimum inhibitory concentration (MIC) came to 13.1 µM (≈ 6.25 µg/mL).
